From publication PMC7645381, “Development and application of a high-throughput screening assay for identification of small molecule inhibitors of the P. falciparum reticulocyte binding-like homologue 5 protein” (International Journal for Parasitology: Drugs and Drug …, 2020)
Like-named read-outs stand apart in the source and are kept apart here.

Assays:
DCLK1 = target: T1, DCLK1 (Homo sapiens, UniProt O15075); experiment: Differential scanning fluorimetry of control protein DCLK1; assay type: binding; details: DSF
T1 construct: made in house
T1 sequence (O15075 372-649 limits assumed): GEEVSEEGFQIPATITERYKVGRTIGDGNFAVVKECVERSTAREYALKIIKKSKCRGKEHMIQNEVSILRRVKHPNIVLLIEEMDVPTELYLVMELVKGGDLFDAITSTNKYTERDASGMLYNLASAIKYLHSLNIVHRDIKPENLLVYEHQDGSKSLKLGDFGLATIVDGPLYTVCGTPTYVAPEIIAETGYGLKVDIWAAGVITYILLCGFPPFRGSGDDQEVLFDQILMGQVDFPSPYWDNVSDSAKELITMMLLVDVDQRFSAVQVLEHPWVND
Method: Doublecortin-like kinase domain 1 (DCLK1) used as a control protein in differential scanning fluorimetry experiments and was recombinantly expressed and purified according to the previously described protocol ([Patel et al., 2016]).
Differential scanning fluorimetry assays were performed as described previously ([Murphy et al., 2013], [2014a], [2014b]) using a Rotor-Gene Q PCR. Briefly, purified PfRh5 was diluted in 20 mM Tris pH 8.0, 150 mM NaCl to achieve 10 μg per reaction and assayed with the appropriate concentration of inhibitor in a total reaction volume of 25 μL. SYPRO Orange (Molecular Probes, CA) was used as a fluorescence probe and detected at 530 nm. Compounds were titrated at final concentrations ranging from 5 μM to 80 μM final. Data was transformed and plotted using GraphPad Prism. Shown data are representative means of two technical experiments.

P. falciparum D10 = P. falciparum D10 growth inhibition by flow cytometry; assay type: cell-based; details: Plasmodium falciparum, D10; growth inhibition by flow cytometry, 12-point dilution series, 72 h
Method: Pranlukast and selected analogues were then evaluated in a P. falciparum parasite viability assay. For this assay, we followed the procedure described by [Gamo et al. (2010)], that used lactate dehydrogenase (LDH) as a readout for parasite viability. In this assay, 3D7 parasites were incubated over 72 h in the presence of increasing concentrations of compounds. […]. For a comparison, selected compounds were incubated in the presence of P. falciparum D10 parasites for 72 h (Table 1, Fig. S14) and growth inhibition measured by flow cytometry. […].

[1] = target: P. falciparum Rh5 (Rh5 – basigin interaction) (Plasmodium falciparum, UniProt Q8IFM5); experiment: biochemical; design: AlphaScreen of Rh5 - His-tagged basigin interaction with anti-Rh5 mAb beads; inhibition of luminescence signal; details: Batch Reference=01; primary pilot screen, single point
Method: Using the Combi-multidrop, 5 μL of Rh5 stock solution (200 nM prepared in assay buffer) was added to columns 1–24 of the 384-well assay plate (Greiner 384-well white, low binding plate, #784904, Bioone). The PerkinElmer Janus automated dispensing system was then employed to transfer, via the pin-tool, 2 × 100 nL of the compound stock DMSO solution from the compound master plate to the assay plate. The plate was sealed and incubated for 30 min at room temperature. Using a Combi-multidrop, 5 μL of hexa-histidine tagged basigin stock solution (80 nM prepared in assay buffer) was then added to columns 1–23 and 5 μL assay buffer to column 24 of the 384-well assay plate. The plate was sealed again and incubated for 30 min at room temperature. A solution of AlphaScreen donor and acceptor beads (20 μg/mL prepared in assay buffer) plus anti-Rh5 mAb solution (2 μg/mL prepared in assay buffer) was prepared in assay buffer under subdued lighting. Using the Combi-multidrop, 10 μL of this solution was added to every well of the assay plate under subdued lighting. The plate was sealed with foil (plate max) and incubated at room temperature for 1 h. The assay plate was then analysed on the PerkinElmer Envision 2103 Multilabel Plate Reader (Ex 680, Em 520–620 nm). The optimised Rh5 AlphaScreen assay was then validated for HT screening purposes by conducting a pilot screen using known drug library (from Prestwick, Tocris and LOPAC) and the MMV Malaria Box, comprising 3708 and 400 compounds (Fig. 1), respectively. Historically, PPIs are notoriously difficult to target with small molecules. To enhance the likelihood of identifying an inhibitor of the Rh5 - basigin interaction the primary screen was conducted at a compound concentration of 20 μM. A 20 μM screening concentration is considered high, when compared to the commonly used primary screen concentrations of approximately 1–10 μM. To follow-up on hit compounds from the pilot validation screen, we next wanted to confirm the activity of the primary hits. To do this, a two-phase hit confirmation and counterscreen process was undertaken (Fig. 1). In the first phase, the 231 primary hits from both libraries were evaluated in the Rh5 AlphaScreen assay and counterscreen assay. Both assays were undertaken at 10 μM in duplicate. The counterscreen assay was conducted using AlphaScreen TruHits. […] The 45 secondary hits can be viewed in the top left quadrant of Fig. S8. Of the 45 hits, 13 compounds originated from the Malaria Box and 32 compounds from the known drug library.

[2] = system: P. falciparum 3D7 parasites; experiment: P. falciparum parasite viability assay (LDH); assay type: cell-based; details: LDH activity, 10-point dilution series, 72 h, read-out: P. falciparum 3D7 EC50
Method: A modified version of the lactate dehydrogenase (LDH) assay described by [Gamo et al. […] Compounds were pre-dispensed in 384-well plates, RPMI/Albumax growth media was added, and P. falciparum inoculated. Plates were incubated for 72 h and then frozen at −80 °C overnight. LDH activity was quantified with the modified cofactor 3-acetylpyridine adenine dinucleotide (APAD) (Sigma Aldrich) by measuring absorbance of the tetrazolium indicator nitro blue tetrazolium (NBT) (Sigma Aldrich) at 650 nm. Parasite conditions: […] Growth inhibition assay: […] Intermediate compound dilution plates were prepared by dispensing 5 μL from each well of the compound master plate into 11.5 μL of RPMI/Albumax growth media. Duplicate assay plates (384-well) were then prepared by dispensing 0.5 μL of compound from the intermediate dilution plates into 9.5 μL of RPMI/Albumax growth media. […] The final DMSO concentration was 0.1% (to limit toxicity to parasites). […] Evaluation of parasite growth measuring lactate dehydrogenase (LDH) activity: After 72 h of incubation, plates were frozen at −80 °C overnight and then thawed at room temperature for at least 4 h. […] Plates were shaken to ensure mixing and absorbance at 650 nm was monitored using a PerkinElmer Envision plate reader after 30 min of incubation at room temperature. Data were normalised to percent growth inhibition using positive and negative controls and analyzed using TIBCO Spotfire software.

Sequence of P. falciparum Rh5 (Rh5 – basigin interaction) (Q8IFM5 24-526): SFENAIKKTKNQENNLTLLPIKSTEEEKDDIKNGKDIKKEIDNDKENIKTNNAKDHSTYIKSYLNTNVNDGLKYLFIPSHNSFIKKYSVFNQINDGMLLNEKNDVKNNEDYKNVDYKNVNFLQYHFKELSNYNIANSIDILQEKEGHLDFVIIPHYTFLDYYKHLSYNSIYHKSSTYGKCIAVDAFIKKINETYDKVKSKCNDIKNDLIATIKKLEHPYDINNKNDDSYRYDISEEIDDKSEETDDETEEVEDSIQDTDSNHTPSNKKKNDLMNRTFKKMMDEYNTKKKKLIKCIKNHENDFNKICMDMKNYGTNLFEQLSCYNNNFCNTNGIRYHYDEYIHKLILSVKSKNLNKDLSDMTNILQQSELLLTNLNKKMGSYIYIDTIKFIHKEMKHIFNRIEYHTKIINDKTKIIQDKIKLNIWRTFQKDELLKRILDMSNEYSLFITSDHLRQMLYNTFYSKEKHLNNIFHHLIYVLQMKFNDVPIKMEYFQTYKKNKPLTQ

Structure (SMILES): O=C(Nc1cccc2c(=O)cc(-c3nnn[nH]3)oc12)c1ccc(OCCCCc2ccccc2)cc1 [pranlukast]
- effect on Tm of DCLK1 (DCLK1; concentration up to 20 μM): did not have a significant impact on the Tm of DCLK1
- effect on Tm of DCLK1 (DCLK1; high concentration (>40 μM)): markedly lower Tm
- EC50 (P. falciparum D10): 28 µM
- inhibition at 20 µM [1]: 75.4%
- EC50 [2]: 40 µM
- EC50 ([2]; Plasmodium falciparum, 3D7, 72 h): 39 µM
